# Results taken from patent US10167262B2, “Herbicidal substituted 3-arylpyrazoles” (FMC CORPORATION, priority 2014, dated 2019).
# Columns and labels:
# Format in all cases: in vivo
# [1] = tested on: velvetleaf (Abutilon theophrasti); assay: Test C pre-/postemergence greenhouse test, plant response rating 0-100
# Procedure, shortened: (§1)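 Plants were treated either at seeding (soil of loam and sand) or as 2–18 cm seedlings in a sphagnum peat mix, using test chemicals in a surfactant-containing non-phytotoxic solvent. Visual assessment relative to controls followed 13–15 days later.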
# [2] = tested on: ragweed (common ragweed, Ambrosia elatior); assay: as above
# Procedure, shortened: as §1
# [3] = tested on: morningglory (Ipomoea coccinea); assay: as above
# Procedure, shortened: as §1
# [4] = tested on: galium (catchweed bedstraw, Galium aparine); assay: as above
# Procedure, shortened: as §1
# [5] = tested on: Italian ryegrass (Lolium multiflorum); assay: as above
# Procedure, shortened: as §1
# [6] = tested on: velvetleaf (Abutilon theophrasti); assay: Test A pre-/postemergence greenhouse herbicide test, visual injury rating 0-100
# Procedure, shortened: (§2)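 Seeds sown in loam soil–sand blend; preemergence directed soil spray and, simultaneously, postemergence spray on plants 2 to 10 cm tall at one- to two-leaf stage. Compounds formulated in non-phytotoxic solvent mixture with surfactant. Injury rated visually versus untreated controls after ~10 days in greenhouse.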
# corn (Zea mays) = assay: as above
# Procedure, shortened: as §2
# [7] = tested on: pigweed (Amaranthus retroflexus); assay: as above
# Procedure, shortened: as §2
# [8] = tested on: large (Lg) crabgrass (Digitaria sanguinalis); assay: as above
# Procedure, shortened: as §2
# [9] = tested on: morningglory (Ipomoea spp.); assay: as above
# Procedure, shortened: as §2
# [10] = tested on: barnyardgrass (Echinochloa crus-galli); assay: as above
# Procedure, shortened: as §2
# [11] = tested on: wheat (Triticum aestivum); assay: as above
# Procedure, shortened: as §2
# [12] = tested on: giant foxtail (Setaria faberii); assay: as above
# Procedure, shortened: as §2
# [13] = Postemergence, 250 g ai/ha, scale 0 to 100
# [14] = Postemergence, 500 g ai/ha, scale 0 to 100
compound,measurement,setting,value
Cn1cc(C(=NN2CCCC2)c2ccccc2)c(-c2cc(Cl)c(Cl)c(Cl)c2)n1 [Compound 25],"Plant response rating (0 to 100), Velvetleaf","[1]; Postemergence, 62 g ai/ha",55
same,"Plant response rating (0 to 100), Velvetleaf","[1]; Postemergence, 125 g ai/ha",65
same,"Plant response rating, Velvetleaf",[1]; [13],70
same,"Plant response rating (0 to 100), Ragweed","[2]; Postemergence, 62 g ai/ha",0
same,"Plant response rating (0 to 100), Ragweed","[2]; Postemergence, 125 g ai/ha",0
same,"Plant response rating, Ragweed",[2]; [13],0
same,"Plant response rating (0 to 100), Morningglory","[3]; Postemergence, 62 g ai/ha",0
same,"Plant response rating (0 to 100), Morningglory","[3]; Postemergence, 125 g ai/ha",0
same,"Plant response rating, Morningglory",[3]; [13],0
same,"Plant response rating (0 to 100), Galium","[4]; Postemergence, 31 g ai/ha",0
same,"Plant response rating (0 to 100), Galium","[4]; Postemergence, 62 g ai/ha",0
same,"Plant response rating (0 to 100), Galium","[4]; Postemergence, 125 g ai/ha",0
same,"Plant response rating, Galium",[4]; [13],0
same,"Plant response rating (0 to 100), Ryegrass, Italian","[5]; Postemergence, 62 g ai/ha",0
same,"Plant response rating (0 to 100), Ryegrass, Italian","[5]; Postemergence, 125 g ai/ha",0
same,"Plant response rating, Ryegrass, Italian",[5]; [13],5
same,"Plant response rating (0 to 100 scale), Velvetleaf","[6]; Postemergence, 1000 g ai/ha",80
same,"Plant response rating (0 to 100 scale), Velvetleaf","[6]; Preemergence, 1000 g ai/ha",20
same,"Plant response rating (0 to 100 scale), Corn","corn (Zea mays); Postemergence, 1000 g ai/ha",0
same,"Plant response rating (0 to 100 scale), Corn","corn (Zea mays); Preemergence, 1000 g ai/ha",0
same,"Plant response rating (0 to 100 scale), Pigweed","[7]; Postemergence, 1000 g ai/ha",90
same,"Plant response rating (0 to 100 scale), Pigweed","[7]; Preemergence, 1000 g ai/ha",90
same,"Plant response rating (0 to 100 scale), Crabgrass, Large","[8]; Postemergence, 1000 g ai/ha",0
same,"Plant response rating (0 to 100 scale), Crabgrass, Large","[8]; Preemergence, 1000 g ai/ha",0
same,"Plant response rating (0 to 100 scale), Morningglory","[9]; Postemergence, 1000 g ai/ha",0
same,"Plant response rating (0 to 100 scale), Morningglory","[9]; Preemergence, 1000 g ai/ha",0
same,"Plant response rating (0 to 100 scale), Barnyardgrass","[10]; Postemergence, 1000 g ai/ha",0
same,"Plant response rating (0 to 100 scale), Barnyardgrass","[10]; Preemergence, 1000 g ai/ha",0
same,"Plant response rating (0 to 100 scale), Wheat","[11]; Postemergence, 1000 g ai/ha",0
same,"Plant response rating (0 to 100 scale), Wheat","[11]; Preemergence, 1000 g ai/ha",0
same,"Plant response rating (0 to 100 scale), Foxtail, Giant","[12]; Postemergence, 1000 g ai/ha",0
same,"Plant response rating (0 to 100 scale), Foxtail, Giant","[12]; Preemergence, 1000 g ai/ha",0
CCOC(OCC)(c1cccs1)c1c[nH]nc1-c1cc(Cl)cc(Cl)c1 [Compound 27],"Plant response rating (0 to 100), Velvetleaf","[1]; Postemergence, 62 g ai/ha",65
same,"Plant response rating (0 to 100), Velvetleaf","[1]; Postemergence, 125 g ai/ha",70
same,"Plant response rating, Velvetleaf",[1]; [13],75
same,"Plant response rating, Velvetleaf",[1]; [14],75
same,"Plant response rating, Velvetleaf","[1]; Preemergence, 62 g ai/ha",10
same,"Plant response rating, Velvetleaf","[1]; Preemergence, 125 g ai/ha",40
same,"Plant response rating, Velvetleaf","[1]; Preemergence, 250 g ai/ha",65
same,"Plant response rating, Velvetleaf","[1]; Preemergence, 500 g ai/ha",60
same,"Plant response rating (0 to 100), Ragweed","[2]; Postemergence, 62 g ai/ha",65
same,"Plant response rating (0 to 100), Ragweed","[2]; Postemergence, 125 g ai/ha",75
same,"Plant response rating, Ragweed",[2]; [13],90
same,"Plant response rating, Ragweed",[2]; [14],75
same,"Plant response rating, Ragweed","[2]; Preemergence, 62 g ai/ha",98
same,"Plant response rating, Ragweed","[2]; Preemergence, 125 g ai/ha",70
same,"Plant response rating, Ragweed","[2]; Preemergence, 250 g ai/ha",70
same,"Plant response rating, Ragweed","[2]; Preemergence, 500 g ai/ha",100
same,"Plant response rating (0 to 100), Morningglory","[3]; Postemergence, 62 g ai/ha",0
same,"Plant response rating (0 to 100), Morningglory","[3]; Postemergence, 125 g ai/ha",0
same,"Plant response rating, Morningglory",[3]; [13],0
same,"Plant response rating, Morningglory",[3]; [14],55
same,"Plant response rating, Morningglory","[3]; Preemergence, 62 g ai/ha",0
same,"Plant response rating, Morningglory","[3]; Preemergence, 125 g ai/ha",0
same,"Plant response rating, Morningglory","[3]; Preemergence, 250 g ai/ha",0
same,"Plant response rating, Morningglory","[3]; Preemergence, 500 g ai/ha",0
same,"Plant response rating (0 to 100), Galium","[4]; Postemergence, 62 g ai/ha",0
same,"Plant response rating (0 to 100), Galium","[4]; Postemergence, 125 g ai/ha",0
same,"Plant response rating, Galium",[4]; [13],0
same,"Plant response rating, Galium",[4]; [14],0
same,"Plant response rating, Galium","[4]; Preemergence, 62 g ai/ha",0
same,"Plant response rating, Galium","[4]; Preemergence, 125 g ai/ha",50
same,"Plant response rating, Galium","[4]; Preemergence, 250 g ai/ha",80
same,"Plant response rating, Galium","[4]; Preemergence, 500 g ai/ha",30
same,"Plant response rating (0 to 100), Ryegrass, Italian","[5]; Postemergence, 62 g ai/ha",5
same,"Plant response rating (0 to 100), Ryegrass, Italian","[5]; Postemergence, 125 g ai/ha",0
same,"Plant response rating, Ryegrass, Italian",[5]; [13],5
same,"Plant response rating, Ryegrass, Italian",[5]; [14],5
same,"Plant response rating, Ryegrass, Italian","[5]; Preemergence, 62 g ai/ha",0
same,"Plant response rating, Ryegrass, Italian","[5]; Preemergence, 125 g ai/ha",0
same,"Plant response rating, Ryegrass, Italian","[5]; Preemergence, 250 g ai/ha",0
same,"Plant response rating, Ryegrass, Italian","[5]; Preemergence, 500 g ai/ha",0
same,"Plant response rating (0 to 100 scale), Velvetleaf","[6]; Postemergence, 125 g ai/ha",80
same,"Plant response rating (0 to 100 scale), Velvetleaf","[6]; Postemergence, 500 g ai/ha",90
same,"Velvetleaf plant response rating (0 = no effect, 100 = complete control)","[6]; Preemergence, 125 g ai/ha",80
same,"Plant response rating (0 to 100 scale), Velvetleaf","[6]; Preemergence, 500 g ai/ha",80
same,"Plant response rating (0 to 100 scale), Corn","corn (Zea mays); Postemergence, 125 g ai/ha",0
same,"Plant response rating (0 to 100 scale), Corn","corn (Zea mays); Postemergence, 500 g ai/ha",0
same,"Corn plant response rating (0 = no effect, 100 = complete control)","corn (Zea mays); Preemergence, 125 g ai/ha",0
same,"Plant response rating (0 to 100 scale), Corn","corn (Zea mays); Preemergence, 500 g ai/ha",0
same,"Plant response rating (0 to 100 scale), Pigweed","[7]; Postemergence, 125 g ai/ha",80
same,"Plant response rating (0 to 100 scale), Pigweed","[7]; Postemergence, 500 g ai/ha",100
same,"Pigweed plant response rating (0 = no effect, 100 = complete control)","[7]; Preemergence, 125 g ai/ha",100
same,"Plant response rating (0 to 100 scale), Pigweed","[7]; Preemergence, 500 g ai/ha",100
same,"Plant response rating (0 to 100 scale), Crabgrass, Large","[8]; Postemergence, 125 g ai/ha",0
same,"Plant response rating (0 to 100 scale), Crabgrass, Large","[8]; Postemergence, 500 g ai/ha",0
same,"Crabgrass, Large plant response rating (0 = no effect, 100 = complete control)","[8]; Preemergence, 125 g ai/ha",0
same,"Plant response rating (0 to 100 scale), Crabgrass, Large","[8]; Preemergence, 500 g ai/ha",0
same,"Plant response rating (0 to 100 scale), Morningglory","[9]; Postemergence, 125 g ai/ha",0
same,"Plant response rating (0 to 100 scale), Morningglory","[9]; Postemergence, 500 g ai/ha",0
same,"Morningglory plant response rating (0 = no effect, 100 = complete control)","[9]; Preemergence, 125 g ai/ha",0
same,"Plant response rating (0 to 100 scale), Morningglory","[9]; Preemergence, 500 g ai/ha",0
same,"Plant response rating (0 to 100 scale), Barnyardgrass","[10]; Postemergence, 125 g ai/ha",0
same,"Plant response rating (0 to 100 scale), Barnyardgrass","[10]; Postemergence, 500 g ai/ha",0
same,"Barnyardgrass plant response rating (0 = no effect, 100 = complete control)","[10]; Preemergence, 125 g ai/ha",0
same,"Plant response rating (0 to 100 scale), Barnyardgrass","[10]; Preemergence, 500 g ai/ha",0
same,"Plant response rating (0 to 100 scale), Wheat","[11]; Postemergence, 125 g ai/ha",0
same,"Plant response rating (0 to 100 scale), Wheat","[11]; Postemergence, 500 g ai/ha",0
same,"Wheat plant response rating (0 = no effect, 100 = complete control)","[11]; Preemergence, 125 g ai/ha",0
same,"Plant response rating (0 to 100 scale), Wheat","[11]; Preemergence, 500 g ai/ha",0
same,"Plant response rating (0 to 100 scale), Foxtail, Giant","[12]; Postemergence, 125 g ai/ha",0
same,"Plant response rating (0 to 100 scale), Foxtail, Giant","[12]; Postemergence, 500 g ai/ha",0
same,"Foxtail, Giant plant response rating (0 = no effect, 100 = complete control)","[12]; Preemergence, 125 g ai/ha",0
same,"Plant response rating (0 to 100 scale), Foxtail, Giant","[12]; Preemergence, 500 g ai/ha",0
